# Like-named read-outs stand apart in the source and are kept apart here.
# Columns and labels:
# [1] = biological target: T1, human RNA capping enzyme (HCE) (Homo sapiens, UniProt O60942); experiment: Complete RNA capping reaction (RTase+GTase) of a 5′-triphosphate RNA; format: biochemical
# T1 construct: full-length bifunctional HCE protein (amino acid 1–597); 6-His (N); made in house; host or cells: Escherichia coli BL21(DE3), pET28a
# Procedure: Reaction mixtures containing 5 µM [α-^32P]GTP, 5 µM of 5′-triphosphate RNA, 0.1 µM HCE, 50 mM Tris-HCl, pH 7.5, 5 mM MgCl2, 500 µM DTT, 0.5 ng/µl pyrophosphatase (Roche), and 1 U of RNAse Out (Invitrogen) were incubated for 15 min at 37°C. Reactions were stopped by the addition of 20 µl of phenol-chloroform. 10 µl of loading dye (97% formamide) was added to the aqueous phase and submitted to electrophoresis on a denaturing 10% polyacrylamide gel. Formation of the ^32P-radiolabeled GpppRNA was quantified with a PhosphorImager.
# In order to investigate if MZP could inhibit the RNA capping reaction, we initially addressed its impact on the complete RNA capping reaction (RTase+GTase). A cold 5′-triphosphate RNA was incubated in the presence of HCE, [α-^32P]GTP, magnesium and increasing concentrations of MZP. […] To ensure that the inhibition by MZP was specific, the reaction was performed in the presence of increasing concentrations of GMP which is chemically related to MZP.
# A103R [2] = biological target: T2, A103R (Paramecium bursaria Chlorella virus 1, UniProt Q84424); format: biochemical, Chlorella virus (PBCV-1)
# HCE [3] = biological target: T3, HCE (Homo sapiens, UniProt O60942); experiment: GMP transfer on a 5′-diphosphate RNA, second GTase step; format: biochemical; conditions: single turnover
# T3 construct: full-length bifunctional HCE protein (amino acid 1–597); 6-His (N); made in house; host or cells: Escherichia coli BL21(DE3), pET28a
# Procedure: Formation of the enzyme-GMP complex was initially performed for 15 min at 37°C in a buffer containing 1.5 µM [α-^32P]GTP, 1 µM HCE, 70 mM Tris-HCl, pH 7.5, 7.5 mM MgCl2, 70 µM DTT, 0.7 ng/µl pyrophosphatase (Roche), and 1 U of RNAse Out (Invitrogen). The transfer reaction was then initiated by adding a 5′-diphosphate RNA (32 nt) to a final concentration of 0.5 µM with various concentration of MZP (as indicated). After 30 sec at 37°C, the transfer reaction was stopped by the addition of 20 µl of phenol-chloroform. 10 µl of loading dye (97% formamide) was added to the aqueous phase and submitted to electrophoresis on a denaturing 10% polyacrylamide gel. The formation of the ^32P-radiolabeled GpppRNA was quantified with a PhosphorImager.
# We next investigated if the second step of the GTase reaction could be impaired by MZP. EpG complex formation was allowed to initially form upon incubation of HCE with excess [α-^32P]GTP, magnesium and pyrophosphatase. Next, various concentrations of MZP and a cold 5′-diphosphate RNA were added to initiate the transfer of the [α-^32P]GMP moiety onto the RNA in single turnover condition.
# HCE [4] = biological target: T3, HCE; experiment: Enzyme-GMP (EpG) complex formation, first GTase step; format: biochemical
# Procedure: The enzyme-GMP complex formation assays were carried out for 3 min at 37°C in a buffer containing 1 µM [α-^32P]GTP, 4 µM HCE, 50 mM Tris-HCl, pH 7.5, 5 mM MgCl2, 500 µM DTT, 0.5 ng/µl pyrophosphatase (Roche), and various concentration of MZP (as indicated). The reactions were stopped by the addition of 5 µl of loading dye (50 mM EDTA, 2% β-mercaptoethanol, 1% SDS) and analyzed on a 12% polyacrylamide gel containing 0.1% SDS. The formation of the radiolabeled HCE-[α-^32P]GMP covalent complex was quantified with a PhosphorImager. Similar experiments were conducted using only the GTase domain of HCE (HCE-G229–597). Alternatively, equimolar concentrations of MgCl2 to MZP were added to the reaction in addition to the base 5 mM MgCl2 from the buffer (MZP✯Mg^2+).
# We next set out to identify which step (if any) of the GTase reaction is more susceptible to MZP inhibition. In order to investigate the inhibitory potency of MZP on HCE-GMP complex formation (first step), HCE was incubated with [α-^32P]GTP, magnesium and increasing concentrations MZP. […] The formation of the EpG covalent complex in single turnover condition was analyzed by SDS-PAGE and quantified by phosphorimaging. […] Nevertheless, MZP inhibition of the EpG complex formation is weak and could not be solely responsible for the global inhibitory potency of MZP.
# A103R [5] = biological target: T2, A103R; format: biochemical, Chlorella virus (PBCV-1); remark: listed apart in the source
# HCE [6] = biological target: T3, HCE; experiment: MZP transfer onto an acceptor RNA (cap donor substrate test); format: biochemical; conditions: 2 mM MZP, 2 h 37°C
# Procedure: Reaction mixtures containing 50 mM Tris-HCl, pH 7.5, 5 mM MgCl2, 500 µM DTT, 0.7 ng/µl pyrophosphatase (Roche), and 1 U of RNAse Out (Invitrogen), 1 µM of 5′-diphosphate RNA substrate (32 nt) harboring a α-^32P-radiolabeled 5′-phosphate, 0.2 µM HCE were incubated in absence or in presence of 2 mM GTP or MZP for 2 h at 37°C. The reaction pH was adjusted to 5.2 with 50 mM NaOAc followed by the addition of 5 µg of Nuclease P1 and incubation at 37°C for 60 min. The digestion were further adjusted with 50 mM Tris-HCl to pH 8.0, and digested with 1 U of alkalie phosphatase (Roche) for 30 min at 37°C. The reaction products were analyzed by thin-layer chromatography (TLC) on a polyethyleneimine-cellulose plate developed with 0.4 M ammonium sulfate.
# Supplementary file pone.0054621.s002.tif: Figure S2 MZP as a potential cap donor substrate for HCE. A 5′-diphosphate acceptor RNA initiating with a [α-^32P] guanosine was incubated in absence (lane 1) or in presence of MZP (lane 2) or GTP (lane 3) and HCE. The capping reaction was sequentially submitted to nuclease P1 then alkaline phosphatase prior to analysis by TLC on a polyethyleneimine-cellulose plate. An autoradiogram of the plate is shown. The locations of the origin and GpppG product are indicated by arrows (right). (TIF) Click here for additional data file.
# Ceg1 [7] = biological target: T4, Ceg1 (Saccharomyces cerevisiae, UniProt Q01159); experiment: Enzyme-GMP (EpG) complex formation, yeast GTase; format: biochemical; conditions: GTase first step, compared with other GTases
# T4 sequence (Q01159 1-459): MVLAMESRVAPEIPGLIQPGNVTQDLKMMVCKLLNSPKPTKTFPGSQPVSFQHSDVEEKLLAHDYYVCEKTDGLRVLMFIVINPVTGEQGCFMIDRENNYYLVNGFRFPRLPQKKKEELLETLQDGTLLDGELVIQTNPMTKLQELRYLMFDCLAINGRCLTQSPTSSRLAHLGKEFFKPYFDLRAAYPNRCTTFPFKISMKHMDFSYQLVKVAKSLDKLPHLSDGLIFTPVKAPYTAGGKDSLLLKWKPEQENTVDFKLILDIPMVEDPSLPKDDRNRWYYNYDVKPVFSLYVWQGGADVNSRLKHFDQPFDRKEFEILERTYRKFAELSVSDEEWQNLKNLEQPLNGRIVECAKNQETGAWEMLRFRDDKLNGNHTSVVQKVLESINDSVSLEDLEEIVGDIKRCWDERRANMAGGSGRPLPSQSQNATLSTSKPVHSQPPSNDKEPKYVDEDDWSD
# HCE GTase activity [8] = biological target: T5, HCE GTase activity (Homo sapiens, UniProt O60942); experiment: Complete two-step RNA guanylyltransferase (GTase) reaction on 5′-diphosphate RNA; format: biochemical
# T5 construct: full-length bifunctional HCE protein (amino acid 1–597); 6-His (N); made in house; host or cells: Escherichia coli BL21(DE3), pET28a
# HCE GTase activity [9] = experiment: as above; format: biochemical, human; conditions: complete GTase reaction; HCE vs D1R, A103R, Ceg1
# D1R [10] = biological target: T6, D1R (Vaccinia virus, UniProt P04298); experiment: Enzyme-GMP (EpG) complex formation, vaccinia virus GTase; format: biochemical
# Ceg1 [11] = biological target: T4, Ceg1; experiment: Complete GTase reaction, yeast GTase; format: biochemical; conditions: 0,5 µM Ceg1
# HCE RTase activity = biological target: T7, HCE RTase activity (Homo sapiens, UniProt O60942); experiment: RNA triphosphatase (RTase) assay; format: biochemical; conditions: MZP up to 10 mM, full-length HCE
# T7 construct: full-length bifunctional HCE protein (amino acid 1–597); 6-His (N); made in house; host or cells: Escherichia coli BL21(DE3), pET28a
# Procedure: Reaction mixtures containing 50 mM Tris-HCl, pH 7.5, 5 mM MgCl2, 500 µM DTT, 3 µM of γ-^32P-radiolabeled 5′-triphosphate RNA substrate (32 nt), 0.1 µM HCE, and various concentration of MZP (as indicated) were incubated for 10 min at 37°C. The reactions were stopped by the addition of 2 µl of 5 M formic acid. Aliquots of each sample were analyzed on polyethyleneimine-cellulose thin-layer chromatography (TLC) plate, and developed with 0.5 M LiCl and 1 M formic acid. The release of ^32Pi was quantified by scanning the TLC plates with a PhosphorImager.
# We next investigated the susceptibility of the RTase domain of HCE to MZP inhibition. To specifically monitor the effect of MZP on the RTase activity, a γ-^32P-radiolabeled 5′-triphosphate RNA was incubated with HCE and magnesium. RTase activity was monitored through the analysis of the ^32Pi product released from the radiolabeled RNA by TLC and autoradiography.
# [12] = tested on: HCE-G229–597 (GTase domain of HCE); experiment: Complete GTase reaction with isolated GTase domain; format: biochemical, human
# D1R [13] = biological target: T6, D1R; experiment: Complete GTase reaction, vaccinia virus GTase; format: biochemical
# HEK 293T cells = experiment: Inhibition of mRNA cap formation in cells (firefly luciferase reporter); conditions: 40 µM or 120 µM mizoribine, all cell lines, versus untreated cells
# [14] = set-up: method as in PMID 19336917, PMID 15773958, PMID 11896891, PMID 12036371; conditions: cited from earlier work
# T3 sequence (O60942 whole entry): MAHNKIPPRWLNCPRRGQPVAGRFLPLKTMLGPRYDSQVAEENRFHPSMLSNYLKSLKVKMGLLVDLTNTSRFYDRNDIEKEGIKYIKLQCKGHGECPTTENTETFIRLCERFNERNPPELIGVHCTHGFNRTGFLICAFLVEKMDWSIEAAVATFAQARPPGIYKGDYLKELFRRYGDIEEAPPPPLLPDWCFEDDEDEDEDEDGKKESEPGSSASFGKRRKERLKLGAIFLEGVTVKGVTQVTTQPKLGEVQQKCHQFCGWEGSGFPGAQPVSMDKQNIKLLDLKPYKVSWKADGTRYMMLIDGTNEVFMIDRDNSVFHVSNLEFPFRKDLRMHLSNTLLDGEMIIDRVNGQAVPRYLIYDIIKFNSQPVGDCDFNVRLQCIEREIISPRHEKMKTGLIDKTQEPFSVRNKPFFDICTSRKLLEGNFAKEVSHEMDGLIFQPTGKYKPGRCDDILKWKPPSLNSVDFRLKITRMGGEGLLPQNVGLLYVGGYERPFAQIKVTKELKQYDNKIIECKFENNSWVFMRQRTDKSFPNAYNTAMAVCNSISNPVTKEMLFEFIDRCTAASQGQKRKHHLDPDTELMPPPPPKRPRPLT
# T5 sequence (O60942 whole entry): as above
# T1 sequence (O60942 whole entry): as above
# T2 sequence (Q84424 whole entry, stated change not applied): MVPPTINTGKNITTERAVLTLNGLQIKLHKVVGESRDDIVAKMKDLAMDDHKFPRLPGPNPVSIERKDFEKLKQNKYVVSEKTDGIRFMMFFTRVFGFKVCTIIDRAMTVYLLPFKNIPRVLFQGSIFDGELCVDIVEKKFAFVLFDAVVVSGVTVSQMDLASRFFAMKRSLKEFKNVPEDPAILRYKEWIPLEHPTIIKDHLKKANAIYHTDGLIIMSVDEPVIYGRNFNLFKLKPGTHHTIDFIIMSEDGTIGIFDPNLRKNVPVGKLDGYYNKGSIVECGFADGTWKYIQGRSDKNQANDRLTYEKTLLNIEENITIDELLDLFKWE
# T7 sequence (O60942 whole entry): as the sequence (O60942 whole entry) above
structure (smiles),measurement,setting,value
Nc1nc2c(ncn2[C@@H]2O[C@H](COP(=O)(O)O)[C@@H](O)[C@H]2O)c(=O)[nH]1 [GMP],reduction of RNA capping,[1]; GMP concentrations as high as 10 mM,≤ 25%
"NC(=O)c1ncn([C@@H]2O[C@H](COP(=O)(O)O)[C@@H](O)[C@H]2O)c1O [MZP, Mizoribine monophosphate]",IC50,A103R [2],2000 µM
same,impact on GMP transfer to acceptor RNA (second GTase step),HCE [3],only has a minor impact
same,"mechanism of inhibition, EpG formation","HCE [4]; Lineweaver-Burk, maximal velocity unaffected by MZP",competitive
same,IC50,"HCE [4]; single turnover, 4 µM HCE, 1 µM GTP, 3 min 37°C",3000 µM
same,IC50,A103R [5],750 µM
same,use as substrate and transfer onto acceptor RNA,HCE [6],not able to use the MZP as a substrate
same,inhibition of EpG formation,Ceg1 [7],slightly less affected
same,"mechanism of inhibition, complete GTase reaction","HCE GTase activity [8]; Lineweaver-Burk, Km for GTP independent of MZP concentration",non-competitive
same,IC50,"HCE GTase activity [8]; steady-state, 5′-diphosphate RNA, full-length HCE",80 µM
same,"difference in susceptibility, HCE versus other GTases",HCE GTase activity [9],5-to 25 fold
same,IC50,D1R [10],3000 µM
same,IC50,Ceg1 [11],> 2000 µM
same,effect on RTase activity,HCE RTase activity,does not affect
same,decrease in potency versus full-length HCE,[12],10 fold
same,IC50,"[1]; 0.1 µM HCE, 5 µM GTP, 5 µM 5′-triphosphate RNA, 5 mM MgCl2, 15 min 37°C",150 µM
same,IC50,D1R [13],500 µM
NC(=O)c1ncn([C@@H]2O[C@H](CO)[C@@H](O)[C@H]2O)c1O [mizoribine],effect on reporter protein expression,HEK 293T cells,global reduction in protein expression
same,binding to serum proteins,[14],2.3%

# Reference: article PMC3547949, “The Immunosuppressive Agent Mizoribine Monophosphate Is an Inhibitor of the Human RNA Capping Enzyme” (PLoS ONE, 2013)
